From publication PMC10283052, “Intranasal delivery of mitochondrial protein humanin rescues cell death and promotes mitochondrial function in Parkinson's disease” (Theranostics, 2023) come the findings set out here.

One assay deals with SH-SY5Y cells. As to the kind of experiment: HN-induced intracellular humanin expression, western blot, SH-SY5Y. The format is cell-based, human. Particulars: HN treatment 24 h, several doses, basal humanin undetectable. The protocol: The SH-SY5Y human neuroblastoma cell line and PC12 rat pheochromocytoma cell line were purchased from the Korean Cell Line Bank (Seoul, South Korea). Undifferentiated SH-SY5Y cells were grown in Dulbecco's modified Eagle's medium nutrient mixture F-12 (DMEM/F12; Thermo Fisher Scientific) supplemented with 10% FBS and 1% P/S. Undifferentiated PC12 cells were grown in DMEM (Thermo Fisher Scientific) supplemented with 5% FBS, 5% horse serum, and 1% P/S on poly-D-lysine (PDL, Sigma-Aldrich) plates.
For HN treatment of cells, HN stock solution was first incubated at 37 ℃ with mild stirring for 0.5 h. The solution was then added to the culture medium to achieve a desirable final concentration as described above.
Mouse brain tissue samples and cells were homogenized in radioimmunoprecipitation assay (RIPA) buffer (Cell Signaling, Danvers, MA, USA) in the presence of a protease and phosphatase inhibitor cocktail (Thermo Fisher Scientific). The samples were sonicated on ice, and the supernatant was collected after centrifugation at 4°C at 10,000 g for 5 min. The protein samples were loaded and separated using Tris-glycine SDS-PAGE. To detect the HN peptide, the proteins were separated into three layers of tricine SDS-PAGE, as previously described. […] The results were analyzed using the ImageJ densitometry system. […]

A further assay has as its system MPTP mouse model of PD. As to the kind of experiment: MPTP mouse model of PD, intranasal HN. The conditions noted are these: intranasal HN 0.1 and 5 mg/kg. The assay is classed as in vivo. How it is done: A mouse model of PD was generated using the neurotoxin MPTP-HCl (Sigma-Aldrich, St. Louis, MO, USA), as previously described. Seven- to eight-week-old male C57BL/6J mice were injected with MPTP (20 mg/kg/day) for five consecutive days for the subacute delivery of MPTP. The mice in the control group received the same volume of phosphate buffer saline (PBS).
For intranasal HN treatment, the synthetic HN peptide was delivered according to a procedure reported by Capsoni et al. The synthetic HN peptide was diluted in ddH2O to a concentration of 0.1 and 5 mg/kg for mice (total volume of 40 μL) at 37 ℃ with mild stirring. The mice were held firmly in one hand in a supine position with their head at 90°. Synthetic HN was administered in the form of 5-μL drops over 20 min in alternating nostrils every 3 min. After administration, the heads of the mice were held in the same position to prevent loss of the applied solution from the nares.
To stain the mouse brain tissue samples, transcardial perfusion was performed using PBS and 4% paraformaldehyde in PBS. The brain and trigeminal ganglia were removed, post-fixed using 4% paraformaldehyde in PBS, and stored in a 30% sucrose solution at 4 ℃ until they sank. Coronal sections were prepared (thickness: 10 µm) using a sliding microtome. After blocking with 5% BSA, the samples were incubated with the appropriate primary antibody as mentioned above. After incubation with the primary antibodies, the tissue samples were incubated with Alexa Fluor 594- or 488-conjugated antibodies (Thermo Fisher Scientific) for immunofluorescence or with secondary biotinylated anti-rabbit IgG (H+L) (Vector Laboratories, Burlingame, CA, USA) for immunohistochemistry. […] Mitochondrial network morphology was further assessed using the FIJI/ImageJ software as described previously.
Mouse brain tissue samples and cells were homogenized in radioimmunoprecipitation assay (RIPA) buffer (Cell Signaling, Danvers, MA, USA) in the presence of a protease and phosphatase inhibitor cocktail (Thermo Fisher Scientific). […] The results were analyzed using the ImageJ densitometry system. […]

For “humanin (MAPRGFSCLLLLTSEIDLPVKRRA; Humanin; UniProt Q8IVG9 1-24, looked up) [HN, mitochondria-derived peptide encoded by the mitochondrial genome, synthesized by Fmoc-based SPPS at GL Biochem]”, the intracellular humanin expression entry in the assay on SH-SY5Y cells is “induced its intracellular expression in a dose-dependent manner”. Further, the “motor function, pole test” value in the assay with MPTP mouse model of PD (MPTP 20 mg/kg/day for 5 days) was “steady motor improvements in a dose-dependent manner”. Further, the “TH expression, dopaminergic neurons of substantia nigra pars compacta” value in the assay with MPTP mouse model of PD (dose-dependent, TH staining, stereology) is recorded as “significantly restored TH expression”. Further, in the assay with MPTP mouse model of PD (three independent blots), the “TH protein in striatum lysates, western blot” value is recorded as “confirmed the impact of intranasal delivery of HN on protecting TH^+ dopaminergic neurons”.
